{"source": "patent US20080221213A1", "about": "“Tablets Comprising a High Load of Strontium” (OSTEOLOGIX A/S SYMBION SCIENCE PARK, priority 2005, published 2008)", "experiment": "Single oral dose pharmacokinetic study in humans (healthy male volunteers), serum strontium by ICP-MS", "conditions": "by inverse regression on the dose-AUC model; 95% CI [1.073, 1.115]"}
{"compound": "O=C([O-])CC(=O)[O-].[Sr+2]", "note": "[strontium malonate]", "values": [{"measurement": "Bioequivalent dose to 2.0 g strontium ranelate (Protelos) in terms of AUC5 week", "value": 1.09, "unit": "g"}]}
